Source: patent US20250186475A1, “METHODS OF TREATING MEDICAL CONDITIONS USING ISLATRAVIR OR A RELATED COMPOUND” (ROME Therapeutics, Inc., priority 2022, published 2025)
Blank lines part the entries; values can stand above or below the compound they belong to.

Legend:
[1] = biological target: T1, recombinant MBP-tagged LINE1 protein (238-1061) (Homo sapiens, UniProt O00370); assay: Homogeneous time-resolved fluorescence (HTRF) LINE1 RT assay; assay type: biochemical; settings: 25° C., 60 minutes, read-out: IC50 for inhibition of LINE1 reverse transcriptase
T1 construct: recombinant MBP-tagged LINE1 protein (238-1061); MBP; made in house
Protocol: The LINE1 reverse transcriptase homogeneous time-resolved fluorescence (HTRF) assay was performed with recombinant MBP-tagged LINE1 protein (238-1061) (generated and purified according to procedures in Dai L. et al. BMC Biochemistry 2011; 12:18) in a 384-well format. Test compound was serially diluted in DMSO and further diluted in the assay buffer (50 mM Tris-HCl, 50 mM KCl, 10 mM MgCl2, 10 mM DTT, pH 8.1) to achieve a final DMSO concentration of 1%. The serially diluted compound was mixed with 64 ng/well of LINE1 enzyme, 5 nM of pre-annealed template/biotin-primer pair (synthesized at Generay Biotechnology), 10 nM of Fluorescein-12-dATP fluorescent probe (Perkin Elmer), and 1 μM dGTP/dCTP/dTTP (Thermo Fisher Scientific) in the assay buffer. The template/biotin-primer sequences were as follows:
After incubating at 25° C. for 60 minutes, the detection reagent (20 mM EDTA with streptavidin-terbium cryptate, Cisbio Bioassay) in the PPI buffer (Cisbio Bioassay) was added, and the mixture was incubated at 25° C. for 30 minutes. At the end of the incubation, fluorescence was read at ex/em=337/485 nm and ex/em=337/520 nm on an Envision 2104 plate reader (Perkin Elmer). The fluorescence ratio at 520/485 nm was used for the calculation. […] The IC50 was calculated by fitting the compound dose inhibition curve with a 4-parameter non-linear regression equation.

[2] = test system: THP1-Dual™ KO-TREX1 cells; assay: Cellular assay for altering IFN production in THP1 TREX1 KO cells; assay type: cell-based; settings: in the presence of 1 μM 5-aza-2′-deoxycytidine, five days
Protocol: (§1) THP1-Dual™ KO-TREX1 cells were purchased from Invivogen (cat #thpd-kotrex). The THP1-Dual™ KO-TREX1 cells were cultured in RPMI 1640, 10% heat-inactivated fetal bovine serum, 25 mM HEPES, 10 μg/mL Blasticidin, and 100 μg/mL Zeocin. THP1-Dual™ KO-TREX1 cells were treated with a dose titration of test compound in the presence of 1 μM 5-aza-2′-deoxycytidine (Sigma, cat #189825). Type 1 Interferon and cell viability were assessed after five days of treatment.
(§2) Stock solution of test compound was prepared in DMSO followed by a three-fold dilution in DMSO. Additional 50× dilution was prepared in cell culture media for each dilution. 10 μL of diluted test compound was then added to a 384-well plate.
(§3) THP1-Dual™ KO-TREX1 cells were treated with 1 μM 5-aza-2′-deoxycytidine. THP1-Dual™ KO-TREX1 cells (50 μL) were added to each well of the 384-well plate containing test compound titration at 10,000 cells/well. Cells were incubated at 37° C., 5% CO2 in a humidified incubator for five days. On day five, 20 μL of cell supernatant was transferred to a 384-well, white-walled plate, followed by addition to each well of 50 μL of QUANTI-LUC solution containing stabilizer. Luminescence was detected on a plate reader according to manufacturer's instructions. […]

[3] = test system: THP1-Dual™ KO-TREX1 cells; assay: CellTiter-Glo cell viability in THP1 TREX1 KO cells; assay type: cell-based; settings: Homo sapiens, 120 h, in the presence of 1 μM 5-aza-2′-deoxycytidine, five days, read-out: CellTiter-Glo inhibition IC50
Protocol: as §1, §2
as §3, with “On day five, 20 μL of cell supernatant was transferred to a 384-well, white-walled plate, followed by addition to each well of 50 μL of QUANTI-LUC solution containing stabilizer.” left out
The remaining cells were assessed for cell viability by adding 30 μl of CellTiter-Glo (Promega, G9683) solution to each well, and placed on a shaker for 10 minutes at room temperature. Luminescence was detected on a plate reader, according to manufacturer's instructions. […]

[4] = biological target: T2, LINE1 reverse transcriptase (Homo sapiens, UniProt O00370); assay: Stable artificial-intron Cis LINE1 reporter assay (HeLa Tet-On 3G); assay type: cell-based; settings: HeLa L1 reporter cells, doxycycline induced, 72 h; read-out: IC50 for inhibition of FLuc luminescence
T2 construct: expressed in transfected cells
Excerpt: A stable HeLa Tet-On 3G (Takara, cat no 631183) cell line expressing a bi-directional inducible LINE1 construct was generated as described in Xie, Y. et al. “Cell division promotes efficient retrotransposition in a stable L1 reporter cell line,” Mobile DNA (2013) 4:10. Single cell clones were screened for high Luciferase expression and the highest expression Firefly expressing clone was chosen for compound testing.
Test compound was serially diluted in DMSO and spotted in 96-well plates. Subsequently the HeLa L1 artificial-intron reporter cells were plated into the compound-containing wells (8,000 cells/well), and the cells were induced for reporter expression with doxycycline (Sigma cat no D9891) at a final concentration of 500 ng/mL. Luminescence was measured 72 h after plating using the Dual-Glo Luciferase Assay System (Promega cat no E2940) following the manufacturer's instructions. The Firefly Luciferase activity was used to report LINE1 activity.

[5] = test system: IFN-β production in PBMCs; assay: Decitabine-stimulated human PBMC assay; assay type: cell-based; settings: PBMCs with anti-CD3/anti-CD28 and 10 μM decitabine, 5 days
Protocol: EasySep buffer (32 mL, Stem Cell, cat. #20144) was used to dilute 8 mL of LRSC buffy coat (from fresh Leukopak) with gentle mixing. The diluted buffy coat (20 mL) was transferred into each of two SepMate 50 tubes, and the tubes were filled with 15 mL of Lyphoprep (Stem Cell, ct. #07851) density gradient. The SepMate tubes were then centrifuged at […] for 10 minutes at room temperature with the brake on. The top layer of supernatant was collected in SepMate tubes by quickly pouring it into a new 50 mL conical tube. The PBMCs were washed with EasySep buffer x2 by centrifuging at 300G for 5 minutes. The cells were resuspended in 30 mL of EasySep and centrifuged at 100G for 5 minutes with the brake off, and the platelets were removed. The cells were then resuspended in 6 mL of 1×RBC lysis buffer (InvitroGen) and incubated at 37° C. for 5 minutes. Then, 25 mL of EasySep buffer was mixed into the tube and it was centrifuged at 300G for 5 minutes. The cells were resuspended in 10 mL of EasySep buffer and the cells were then counted with Cellometer (AO/PI). The PBMCs were resuspended in RPMI1640 (ThermoFisher)+10% FBS (HyClone)+p/s at 3×10^6/mL. The PBMCs (100 μL, 300 k PBMCs) were then seeded in a 96-well flat bottom microplate (Corning) that had been precoated with 100 μL of anti-CD3 antibody (10 μg/mL in PBS, Biolegend) or PBS at 4° C., one day before the assay was commenced. […]

[6] = biological target: T2, LINE1 reverse transcriptase; assay: Transient artificial-intron Cis LINE1 reporter assay; assay type: cell-based; settings: HEK 293 cells, FLuc/RLuc ratio, read-out: IC50 for inhibition of FLuc luminescence
Protocol: Intron-disrupted Firefly luciferase (FLuc) expression cassettes were generated as described by Xie, Y. et al. “Characterization of L1 retrotransposition with high-throughput dual-luciferase assays,” Nucleic Acid Res. (2011) Vol. 39, No. 3, e16. In addition, the plasmid contained an intact Renilla luciferase (RLuc) expression cassette on the vector backbone, in order to normalize transfection efficiency and measure potential cell toxicity.
HEK 293 cells were seeded in 96-well plates at 1,000 cells/well in 55 μL and grown for 24 hours. Cells were transfected with FuGeneHD (Promega) following the manufacturer's protocol. Each well received 0.133 ng plasmid, 0.4 μL FuGeneHD reagent, and 4.5 μL GlutaMAX-I-supplemented Opti-MEM I reduced-serum medium (Invitrogen). Cells were simultaneously treated with test compound serially diluted starting at 100 μM in a 3-fold dilution dose response.
Luminescence was measured using the Dual-Glo Luciferase Assay System (Promega) following the manufacturer's instructions. The ratio between FLuc and RLuc gene expression was used to report LINE1 activity.

TE-1 cells = assay: Cancer cell viability assay with 3D cell colonies (CellTiter-Glo), TE-1; assay type: cell-based; settings: 7 days
Protocol: (§4) Ovarian cancer cell line SK-OV-3 cells were cultured in McCoy's 5a media containing 10% FBS. Ovarian cancer cell line OVCAR-8 cells were cultured in RPMI media containing 10% FBS. Additional cancer cell lines were cultured in the following media: • Ovarian cancer SW756 cells—L-15 (100% air)+10% FBS • Esophageal cancer TE-1 cells—RPMI-1640+10% FBS • Esophageal cancer KYSE-410 cells—RPMI-1640+5˜10% FBS • Esophageal cancer KYSE-70 cells—RPMI-1640+10% h.i.FBS. • Pharyngeal cancer FaDu cells—MEM+0.01 mM NEAA+10% FBS
(§5) Cell colony formation was tested using a 3D methylcellulose-based CellTiter-Glo (CTG) viability assay (Cat. No: G7573, Promega). Briefly, cells were inoculated into 96-well plates (at 1,500 cells per well) into a solution of 0.65% methylcellulose in growth media and incubated overnight at 37° C. in 5% CO2. The next day, serially diluted test compound (islatravir) or positive control (cisplatin, Cat. No. 6J015A89, Qilu Pharma) were added at the indicated concentrations, and the cells were incubated for 7 days. On day seven, 100 μL of CTG reagent was added, and the plates were incubated at room temperature for 20 min. Luminescence was read on an Envision Multi Label Reader according to manufacturer's instructions. IC50 values were determined using the following calculation: […]

OVCAR-8 cells = assay: Cancer cell viability assay with 3D cell colonies (CellTiter-Glo), OVCAR-8; assay type: cell-based; settings: 3D tumorsphere growth, 7 days
Protocol: as §4, §5

FaDu cells = assay: Cancer cell viability assay with 3D cell colonies (CellTiter-Glo), FaDu; assay type: cell-based; settings: 7 days
Protocol: as §4, §5

KYSE-70 cells = assay: Cancer cell viability assay with 3D cell colonies (CellTiter-Glo), KYSE-70; assay type: cell-based; settings: 7 days
Protocol: as §4, §5

SW756 cells = assay: Cancer cell viability assay with 3D cell colonies (CellTiter-Glo), SW756; assay type: cell-based; settings: 7 days
Protocol: as §4, §5

KYSE-410 cells = assay: Cancer cell viability assay with 3D cell colonies (CellTiter-Glo), KYSE-410; assay type: cell-based; settings: 7 days
Protocol: as §4, §5

SK-OV-3 cells = assay: Cancer cell viability assay with 3D cell colonies (CellTiter-Glo), SK-OV-3; assay type: cell-based; settings: 3D tumorsphere growth, 7 days
Protocol: as §4, §5

IC50 [1]: 12.4 nM
SMILES: C#C[C@]1(COP(=O)(O)OP(=O)(O)OP(=O)(O)O)O[C@@H](n2cnc3c(N)nc(F)nc32)C[C@@H]1O

IC50 [3]: > 20000 nM
IC50 [4]: 3 nM
IC50 [6]: 8 nM
SMILES: C#C[C@]1(CO)O[C@@H](n2cnc3c(N)nc(Cl)nc32)C[C@@H]1O [4′-ethynyl-2-chloro-2′-deoxyadenosine]
changes in IFN levels (% induction) [2]: induction of IFN
production of IFN-β [5]: activated production of IFN-β

SMILES: N.N.[Cl][Pt][Cl] [Cisplatin, cisplatin]
IC50 (TE-1 cells): ≤ 10 µM
IC50 (OVCAR-8 cells): 3.29 µM
IC50 (FaDu cells): ≤ 10 µM
IC50 (KYSE-70 cells): ≤ 10 µM
IC50 (SW756 cells): ≤ 10 µM
IC50 (KYSE-410 cells): > 30 µM
IC50 (SK-OV-3 cells): 2.24 µM
